Consider nine compounds from US9403834B2, “Pyrrolotriazines as potassium ion channel inhibitors” (BRISTOL-MYERS SQUIBB COMPANY, priority 2013, dated 2016).

T1 sequence (P22460 whole entry): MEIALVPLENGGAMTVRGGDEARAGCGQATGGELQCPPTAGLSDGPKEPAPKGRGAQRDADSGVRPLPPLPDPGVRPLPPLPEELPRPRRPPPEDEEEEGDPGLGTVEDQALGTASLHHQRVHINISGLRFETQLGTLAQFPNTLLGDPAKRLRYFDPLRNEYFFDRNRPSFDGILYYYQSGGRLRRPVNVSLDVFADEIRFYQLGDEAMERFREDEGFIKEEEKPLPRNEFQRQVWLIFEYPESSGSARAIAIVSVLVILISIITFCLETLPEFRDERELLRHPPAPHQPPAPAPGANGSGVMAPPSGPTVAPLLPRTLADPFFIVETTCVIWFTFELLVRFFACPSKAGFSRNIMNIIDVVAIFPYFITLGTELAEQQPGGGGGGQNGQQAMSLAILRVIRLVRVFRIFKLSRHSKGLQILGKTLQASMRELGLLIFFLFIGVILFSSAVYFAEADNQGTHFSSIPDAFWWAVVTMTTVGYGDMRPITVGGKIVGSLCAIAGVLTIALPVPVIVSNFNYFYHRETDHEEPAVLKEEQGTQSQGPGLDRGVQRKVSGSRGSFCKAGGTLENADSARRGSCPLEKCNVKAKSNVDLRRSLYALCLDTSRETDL

The first test has as its target T1, human Kv 1.5 (Homo sapiens, UniProt P22460).
T1 construct: expressed in transfected cells; host or cells: mammalian L-929 cells (mouse fibroblasts)
As to the kind of experiment: block of IKur current in patch clamped L-929 cells expressing human Kv1.5. Format: cell-based. Particulars: 0.3 μM; patch clamped mammalian L-929 cells stably expressing IKur protein. From the text: Assays to determine the degree of activity of a compound as an IKur inhibitor are well known in the art and are described in references such as J. Gen. Physiol., 101(4):513-543 (April 1993), and Br. J. Pharmacol., 115(2):267-274 (May 1995).
1. Synders, D. J. et al., “A rapidly activating and slowly inactivating potassium channel cloned from human heart: functional analysis after stable mammalian cell culture expression”, J. Gen. Physiol., 101:513-543 (1993).
2. Zhou, Z. et al., “Block of HERG potassium channels by the antihistamine astemizole and its metabolites desmethylastemizole and norastemizole”, J. Cardiovasc. Electrophysiol., 10(6):836-843 (1999).
A general note: Patch clamp records ionic current or voltage across a cell membrane.
In the case of `CC(Nc1nnc(-c2cncc(S(N)(=O)=O)c2)n2ccc(-c3ccccc3)c12)c1ccccn1` (single isomer, unassigned) [Example 5, 5-(8-phenyl-1-(1-(pyridin-2-yl)ethylamino)pyrrolo[1,2-d][1,2,4]triazin-4-yl)pyridine-3-sulfonamide], the “Percentage inhibition of Kv1.5 in L-929 cells at 0.3 μM” value is recorded as 88%.

Staying with this test, now noted: L929, 0.3 μM; patch clamped mammalian L-929 cells stably expressing IKur protein; read-out: Percentage inhibition of Kv1.5 in L-929 cells at 0.3 μM.
Consider `CC(Nc1nnc(-c2cncc(S(N)(=O)=O)c2)n2ccc(-c3ccccc3)c12)c1ccccn1` (single isomer, unassigned) [Example 6, 5-(8-phenyl-1-(1-(pyridin-2-yl)ethylamino)pyrrolo[1,2-d][1,2,4]triazin-4-yl)pyridine-3-sulfonamide], for which the inhibition at 0.3 µM was 92%. Same read-out and setting: in the case of `NS(=O)(=O)c1cncc(-c2nnc(NCc3ccccc3)c3c(-c4ccccc4)ccn23)c1` [Example 1, 5-(1-(Benzylamino)-8-phenylpyrrolo[1,2-d][1,2,4]triazin-4-yl)pyridine-3-sulfonamide] it was 89%; in that of `NS(=O)(=O)c1cncc(-c2nnc(Nc3cccc(F)c3)c3c(-c4ccccc4)ccn23)c1` [Example 2, 5-(1-(3-Fluorophenylamino)-8-phenylpyrrolo[1,2-d][1,2,4]triazin-4-yl)pyridine-3-sulfonamide], 91%. On the same count and under the same terms, in the case of `NS(=O)(=O)c1cc(-c2nnc(NCc3ccccn3)c3c(-c4ccccc4)ccn23)cnc1C(F)F` [Example 3, 2-(Difluoromethyl)-5-(8-phenyl-1-(pyridin-2-ylmethylamino)pyrrolo[1,2-d][1,2,4]triazin-4-yl)pyridine-3-sulfonamide] it was 95%.

Regarding `NS(=O)(=O)c1cncc(-c2nnc(NCc3ccccn3)c3c(-c4ccccc4)ccn23)c1` [Example 4, 5-(8-phenyl-1-(pyridin-2-ylmethylamino)pyrrolo[1,2-d][1,2,4]triazin-4-yl)pyridine-3-sulfonamide], the inhibition at 0.3 µM was 86%. `NS(=O)(=O)c1cncc(-c2nnc(NCc3ncccc3F)c3c(-c4ccccc4)ccn23)c1` [Example 7, 5-(1-(((3-fluoropyridin-2-yl)methyl)amino)-8-phenylpyrrolo[1,2-d][1,2,4]triazin-4-yl)pyridine-3-sulfonamide]: the inhibition at 0.3 µM came out at 98%. On the same count and under the same terms, to `NS(=O)(=O)c1cncc(-c2nnc(NCc3ccccc3F)c3c(-c4ccccc4)ccn23)c1` [Example 8, 5-(1-(2-fluorobenzylamino)-8-phenylpyrrolo[1,2-d][1,2,4]triazin-4-yl)pyridine-3-sulfonamide] belongs 93%. Same read-out and setting: in the case of `NS(=O)(=O)c1cncc(-c2nnc(NCc3c(F)cccc3F)c3c(-c4ccccc4)ccn23)c1` [Example 9, 5-(1-(2,6-difluorobenzylamino)-8-phenylpyrrolo[1,2-d][1,2,4]triazin-4-yl)pyridine-3-sulfonamide] it was 92%.

Broadly, the inhibition is how much of the control response was suppressed.
